Measured values published in patent publication US20260144769A1, “4-PHENYLBUTYRATE RESTORED GABA UPTAKE AND REDUCED SEIZURES IN SLC6A1 VARIANT-MEDIATED DISORDERS” (Vanderbilt University, priority 2022, published 2026).

Test system: GAT-1 in patient astrocytes
Test: 3H GABA uptake, patient iPSC derived astrocytes
Assay type: cell-based, human
Conditions: PBA 2 mM
Method: Live images of human neural progenitor cells (NPCs), astrocytes and GABAergic inhibitory neurons differentiated from the human induced pluripotent stem cells (iPSCs) on the day of experiment. […] The DMSO treated corrected or patient cells was taken as 1. […] GABA flux was measured after 30 min transport at room temperature. The influx of GABA, expressed in pmol/μg protein/min, was averaged from duplicates for each condition and for each transfection. The average counting was DMSO treated condition taken as 1. In FIG. 5B, FIG. 5D and FIG. 5F, 966 stands for CI-966 (50 μM) and 711 stands for NNC-711 (35 μM) that was applied 30 min to the astrocytes transfected with the wildtype GAT-1^YFP before preincubation and removed during preincubation. In FIGS. 5B and D, ***p<0.001 vs. corrected DMSO treated. § § <0.01, § § § p<0.001 vs. patient DMSO treated. […] In FIGS. 5B-E, n=4-8 batches of cells. In FIG. 5F, n=4-5 different transfections). Unpaired t test was used for FIG. 5C and FIG. 5E. […] Values were expressed as mean±S.E.M.). […]
Briefly, cells were cultured in […] dishes for 3 days before the GABA uptake experiment in DMEM with 10% fetal bovine serum and 1% penicillin/streptomycin. […] Glacial acetic acid was added, and lysates were then determined on a liquid scintillator with QuantaSmart. […]

Q: What does the source list for `O=C(O)CCCc1ccccc1` [PBA, 4-phenylbutyric acid]?
A: GABA uptake normalized to its DMSO treated (24 hrs): 1.387±0.08; GABA uptake of the patient cells as % of the corrected cells (24 hrs (57% with DMSO)): 81%
